Results as given in patent US11053204B2, “Pyrimidinyloxy benzene derivatives as herbicides” (FMC Corporation, priority 2015, dated 2021).

Assays:
Format in all cases: in vivo
[1] = tested on: barnyardgrass (Echinochloa crus-galli); experiment: Test B flooded paddy test, plant response rating; settings: Echinochloa crus-galli, 312 h; 250 g ai/ha; Flood; scale of 0 to 100 where 0 is no effect and 100 is complete control; 13 to 15 days
In short: (§1)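 In-water treatment: compound dosed into 3 cm flood over soil, water level unchanged throughout. Controls run alongside; visual assessment at day 13–15.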

[2] = tested on: ducksalad (Heteranthera limosa); experiment: Test B flooded paddy test, plant response rating; settings: Heteranthera limosa, 312 h; 250 g ai/ha; Flood; scale of 0 to 100 where 0 is no effect and 100 is complete control; 13 to 15 days
In short: as §1

rice (Oryza sativa) = experiment: Test B flooded paddy test, plant response rating; settings: Oryza sativa, 312 h; 250 g ai/ha; Flood; scale of 0 to 100 where 0 is no effect and 100 is complete control; 13 to 15 days
In short: as §1

[3] = tested on: sedge, umbrella (small-flower umbrella sedge, Cyperus difformis); experiment: Test B flooded paddy test, plant response rating; settings: Cyperus difformis, 312 h; 250 g ai/ha; Flood; scale of 0 to 100 where 0 is no effect and 100 is complete control; 13 to 15 days
In short: as §1

[4] = tested on: blackgrass (Alopecurus myosuroides); experiment: Test C preemergence, plant response rating; settings: Alopecurus myosuroides, pre-emergence, Preemergence
In short: (§2)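 Pre-emergence: seeds sown in loam soil–sand blend or silt loam and sprayed with test chemicals in a non-phytotoxic solvent mixture with surfactant. Post-emergence: plants 2 to 18 cm (1- to 4-leaf stage) in peat-based potting medium, same formulation. Greenhouse 13 to 15 d; visual rating 0 (no effect) to 100 (complete control) versus controls.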

corn (Zea mays) = experiment: Test C preemergence, plant response rating; settings: Zea mays, pre-emergence, Preemergence
In short: as §2

[5] = tested on: crabgrass, large (large crabgrass, Digitaria sanguinalis); experiment: Test C preemergence, plant response rating; settings: Digitaria sanguinalis, pre-emergence, Preemergence
In short: as §2

[6] = tested on: foxtail, giant (giant foxtail, Setaria faberii); experiment: Test C preemergence, plant response rating; settings: Setaria faberi, pre-emergence, Preemergence
In short: as §2

[7] = tested on: lambsquarters (Chenopodium album); experiment: Test C preemergence, plant response rating; settings: Chenopodium album, pre-emergence, Preemergence
In short: as §2

[8] = tested on: morningglory (Ipomoea coccinea); experiment: Test C preemergence, plant response rating; settings: Ipomoea, pre-emergence, Preemergence
In short: as §2

[9] = tested on: nutsedge, yellow (yellow nutsedge, Cyperus esculentus); experiment: Test C preemergence, plant response rating; settings: Cyperus, pre-emergence, Preemergence
In short: as §2

[10] = tested on: oilseed rape (Brassica napus); experiment: Test C preemergence, plant response rating; settings: Brassica napus, pre-emergence, Preemergence
In short: as §2

[11] = tested on: ragweed (common ragweed, Ambrosia elatior); experiment: Test C preemergence, plant response rating; settings: Ambrosia artemisiifolia, pre-emergence, Preemergence
In short: as §2

[12] = tested on: ryegrass, Italian (Italian ryegrass, Lolium multiflorum); experiment: Test C preemergence, plant response rating; settings: Lolium multiflorum, pre-emergence, Preemergence
In short: as §2

soybean (Glycine max) = experiment: Test C preemergence, plant response rating; settings: Glycine max, pre-emergence, Preemergence
In short: as §2

[13] = tested on: velvetleaf (Abutilon theophrasti); experiment: Test C preemergence, plant response rating; settings: Abutilon theophrasti, pre-emergence, Preemergence
In short: as §2

[14] = tested on: waterhemp (common waterhemp, Amaranthus rudis); experiment: Test C preemergence, plant response rating; settings: Amaranthus tuberculatus, pre-emergence, Preemergence
In short: as §2

[15] = tested on: wheat (winter wheat, Triticum aestivum); experiment: Test C preemergence, plant response rating; settings: Triticum aestivum, pre-emergence, Preemergence
In short: as §2

[16] = tested on: chickweed (common chickweed, Stellaria media); experiment: Test C postemergence, plant response rating; settings: Stellaria media, post-emergence
In short: as §2

[17] = tested on: foxtail, giant (giant foxtail, Setaria faberii); experiment: Test C postemergence, plant response rating; settings: Setaria faberi, post-emergence
In short: as §2

[18] = tested on: morningglory (Ipomoea coccinea); experiment: Test C postemergence, plant response rating; settings: Ipomoea, post-emergence
In short: as §2

[19] = 62 g ai/ha, scale 0 to 100 (0 no effect, 100 complete control)
[20] = 125 g ai/ha, scale 0 to 100 (0 no effect, 100 complete control)

In the case of `O=C(OCCCC(F)(F)F)c1c(Br)cccc1Oc1ncc(Cl)cn1` [Compound 20, 4,4,4-trifluorobutyl 2-bromo-6-[(5-chloro-2-pyrimidinyl)oxy]benzoate], the pest or weed control at 250 g/ha [1] is reported as 0%, the pest or weed control at 250 g/ha [2] is reported as 30% and the plant injury at 250 g/ha (rice (Oryza sativa)) is reported as 0%. For the same compound, the pest or weed control at 250 g/ha [3] was 40%, the pest or weed control at 62 g/ha ([4]; 62 g ai/ha, scale of 0 to 100) was 85% and the pest or weed control at 125 g/ha ([4]; 125 g ai/ha, scale of 0 to 100) was 100%. It also gave a pest or weed control at 16 g/ha ([4]; 16 g ai/ha, scale 0 to 100) of 0%, a pest or weed control at 31 g/ha ([4]; 31 g ai/ha, scale 0 to 100) of 40% and a Corn plant response rating (crop injury, 0 = no effect, 100 = complete kill) at 62 g/ha (corn (Zea mays); 62 g ai/ha, scale of 0 to 100) of 0%. It also gave a Corn plant response rating (crop injury, 0 = no effect, 100 = complete kill) at 125 g/ha (corn (Zea mays); 125 g ai/ha, scale of 0 to 100) of 30%, a Corn plant response rating (crop injury, 0 = no effect, 100 = complete kill) at 16 g/ha (corn (Zea mays); 16 g ai/ha, scale 0 to 100) of 0% and a Corn plant response rating (crop injury, 0 = no effect, 100 = complete kill) at 31 g/ha (corn (Zea mays); 31 g ai/ha, scale 0 to 100) of 0%. It also gave a pest or weed control at 62 g/ha ([5]; 62 g ai/ha, scale of 0 to 100) of 98%, a pest or weed control at 125 g/ha ([5]; 125 g ai/ha, scale of 0 to 100) of 100% and a pest or weed control at 16 g/ha ([5]; 16 g ai/ha, scale 0 to 100) of 5%. The pest or weed control at 31 g/ha ([5]; 31 g ai/ha, scale 0 to 100) was 50%, the pest or weed control at 62 g/ha ([6]; 62 g ai/ha, scale of 0 to 100) was 90% and the pest or weed control at 125 g/ha ([6]; 125 g ai/ha, scale of 0 to 100) was 100%. The pest or weed control at 16 g/ha ([6]; 16 g ai/ha, scale 0 to 100) was 35%, the pest or weed control at 31 g/ha ([6]; 31 g ai/ha, scale 0 to 100) was 50% and the pest or weed control at 125 g/ha ([7]; 125 g ai/ha, scale of 0 to 100) was 90%. It also gave a pest or weed control at 16 g/ha ([7]; 16 g ai/ha, scale 0 to 100) of 0%, a pest or weed control at 31 g/ha ([7]; 31 g ai/ha, scale 0 to 100) of 5% and a pest or weed control at 62 g/ha ([7]; 62 g ai/ha, scale 0 to 100) of 10%. For the same compound, the pest or weed control at 125 g/ha ([8]; 125 g ai/ha, scale of 0 to 100) was 10%, the pest or weed control at 16 g/ha ([8]; 16 g ai/ha, scale 0 to 100) was 0% and the pest or weed control at 31 g/ha ([8]; 31 g ai/ha, scale 0 to 100) was 0%. It also gave a pest or weed control at 62 g/ha ([8]; 62 g ai/ha, scale 0 to 100) of 5%, a pest or weed control at 125 g/ha ([9]; 125 g ai/ha, scale of 0 to 100) of 10% and a pest or weed control at 16 g/ha ([9]; 16 g ai/ha, scale 0 to 100) of 0%. For the same compound, the pest or weed control at 31 g/ha ([9]; 31 g ai/ha, scale 0 to 100) was 0%, the pest or weed control at 62 g/ha ([9]; 62 g ai/ha, scale 0 to 100) was 0% and the plant injury at 125 g/ha ([10]; 125 g ai/ha, scale of 0 to 100) was 50%. For the same compound, the plant injury at 16 g/ha ([10]; 16 g ai/ha, scale 0 to 100) was 0%, the plant injury at 31 g/ha ([10]; 31 g ai/ha, scale 0 to 100) was 0% and the plant injury at 62 g/ha ([10]; 62 g ai/ha, scale 0 to 100) was 50%. The pest or weed control at 125 g/ha ([11]; 125 g ai/ha, scale of 0 to 100) was 0%, the pest or weed control at 16 g/ha ([11]; 16 g ai/ha, scale 0 to 100) was 0% and the pest or weed control at 31 g/ha ([11]; 31 g ai/ha, scale 0 to 100) was 0%. It also gave a pest or weed control at 62 g/ha ([11]; 62 g ai/ha, scale 0 to 100) of 0%, a pest or weed control at 125 g/ha ([12]; 125 g ai/ha, scale of 0 to 100) of 70% and a pest or weed control at 16 g/ha ([12]; 16 g ai/ha, scale 0 to 100) of 0%. For the same compound, the pest or weed control at 31 g/ha ([12]; 31 g ai/ha, scale 0 to 100) was 0%, the pest or weed control at 62 g/ha ([12]; 62 g ai/ha, scale 0 to 100) was 30% and the plant injury at 125 g/ha (soybean (Glycine max); 125 g ai/ha, scale of 0 to 100) was 10%. The plant injury at 16 g/ha (soybean (Glycine max); 16 g ai/ha, scale 0 to 100) was 0%, the plant injury at 31 g/ha (soybean (Glycine max); 31 g ai/ha, scale 0 to 100) was 0% and the plant injury at 62 g/ha (soybean (Glycine max); 62 g ai/ha, scale 0 to 100) was 0%. The pest or weed control at 125 g/ha ([13]; 125 g ai/ha, scale of 0 to 100) was 50%, the pest or weed control at 16 g/ha ([13]; 16 g ai/ha, scale 0 to 100) was 0% and the pest or weed control at 31 g/ha ([13]; 31 g ai/ha, scale 0 to 100) was 0%. For the same compound, the pest or weed control at 62 g/ha ([13]; 62 g ai/ha, scale 0 to 100) was 5%, the pest or weed control at 125 g/ha ([14]; 125 g ai/ha, scale of 0 to 100) was 98% and the pest or weed control at 16 g/ha ([14]; 16 g ai/ha, scale 0 to 100) was 30%. It also gave a pest or weed control at 31 g/ha ([14]; 31 g ai/ha, scale 0 to 100) of 85%, a pest or weed control at 62 g/ha ([14]; 62 g ai/ha, scale 0 to 100) of 100% and a plant injury at 125 g/ha ([15]; 125 g ai/ha, scale of 0 to 100) of 5%. It also gave a plant injury at 16 g/ha ([15]; 16 g ai/ha, scale 0 to 100) of 0%, a plant injury at 31 g/ha ([15]; 31 g ai/ha, scale 0 to 100) of 0% and a plant injury at 62 g/ha ([15]; 62 g ai/ha, scale 0 to 100) of 0%. It also gave a pest or weed control at 16 g/ha ([16]; 16 g ai/ha, scale 0 to 100) of 60%, a pest or weed control at 31 g/ha ([16]; 31 g ai/ha, scale 0 to 100) of 60% and a pest or weed control at 62 g/ha [16, 19] of 65%. It also gave a pest or weed control at 125 g/ha [16, 20] of 75%, a pest or weed control at 16 g/ha ([17]; 16 g ai/ha, scale 0 to 100) of 10% and a pest or weed control at 31 g/ha ([17]; 31 g ai/ha, scale 0 to 100) of 10%. The pest or weed control at 62 g/ha [17, 19] was 10%, the pest or weed control at 125 g/ha [17, 20] was 25% and the pest or weed control at 16 g/ha ([18]; 16 g ai/ha, scale 0 to 100) was 75%. It also gave a pest or weed control at 31 g/ha ([18]; 31 g ai/ha, scale 0 to 100) of 65%, a pest or weed control at 62 g/ha [18, 19] of 70% and a pest or weed control at 125 g/ha [18, 20] of 70%.
